The text below walks through data of patent US8492106B2, “Identification methods for ergothioneine transporter modulators and therapeutic uses thereof” (Universitat Zu Koln, priority 2004, dated 2013).

The conditions of series [1]: in vivo.
In the next series the target is T1, ETTh (Homo sapiens, UniProt Q9H015).
T1 construct: expressed in transfected cells
T1 sequence (Q9H015 1-551): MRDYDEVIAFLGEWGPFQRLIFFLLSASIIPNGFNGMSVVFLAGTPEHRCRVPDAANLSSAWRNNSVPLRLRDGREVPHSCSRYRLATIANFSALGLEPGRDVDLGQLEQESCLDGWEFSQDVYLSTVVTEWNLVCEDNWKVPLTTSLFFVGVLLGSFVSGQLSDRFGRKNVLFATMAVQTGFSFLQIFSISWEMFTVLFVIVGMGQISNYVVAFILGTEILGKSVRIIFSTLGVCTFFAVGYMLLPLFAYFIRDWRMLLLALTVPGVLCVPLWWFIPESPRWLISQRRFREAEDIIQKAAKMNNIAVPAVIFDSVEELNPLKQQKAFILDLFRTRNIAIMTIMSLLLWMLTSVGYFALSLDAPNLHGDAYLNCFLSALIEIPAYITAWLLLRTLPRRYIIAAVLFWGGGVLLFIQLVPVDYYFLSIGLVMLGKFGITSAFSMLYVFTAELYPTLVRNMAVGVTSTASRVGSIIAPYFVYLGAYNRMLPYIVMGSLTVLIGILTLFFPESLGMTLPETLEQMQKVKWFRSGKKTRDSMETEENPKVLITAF
Description: Substrate uptake into 293-FIT-ETTh cells expressing ETTh (LC-MS/MS and radiotracer assays). Particulars: for Km: read-out: Km (affinity of ETTh). It counts as cell-based. The procedure: Substrate concentration was 10 μmol/l for all LC-MS/MS assays (gamma-butyryl betaine, N-methyl proline (alias hygric acid), hydroxyproline betaine (alias betonicine), proline betaine (alias stachydrine), and ergothioneine) and 0.1 μmol/l for all radiotracer assays.
(§1) FIG. 3: Determination of Km and Vmax of ergiothioneine transport via ETTh. 293-FIT-ETTh (filled circles) or 293-FIT-NT (open circles) cell monolayers were incubated for 1 min at 37° C. with various ET concentrations in KRH buffer. After thorough washing, cells were lysed with 4 mmol/l HClO4. Lysates were analysed for ET content by LC-MS/MS. Each circle represents a single dish. Uptake into control cells was modeled with a straight line through the origin.
The cDNA of ETTh (EMBL/GenBank accession number Y09881) was inserted into the eukaryotic expression vector pcDNA5/FRT/TO (Invitrogen) to yield pcDNA5/FRT/TO/ETTh. This plasmid was cotransfected together with plasmid pOG44 by lipofection with Tfx-50 (Promega) into Flp-In T-REx 293 cells (Invitrogen; referred to as 293-FIT-NT in the remainder). After antibiotic selection with hygromycin B and blasticidin S, the surviving cells, used as a pool and designated as 293-FIT-ETTh, were assayed for ETT transcripts by Northern analysis.
The cell lines 293-FIT-ETTh and 293-FIT-NT (original cell line, not transfected), grown as monolayers in 6 cm diameter polystyrol dishes and induced with 1 μg/ml doxycycline for 20 h, were incubated for 1 min at 37° C. with 2 ml of a mixture of human plasma (50%) and KRH buffer (50%). KRH buffer (Krebs-Ringer-Henseleit) contains 5.6 mM (+)-Glucose, 125 mM NaCl, 4.8 mM KCl, 1.2 mM KH2PO4, 1.2 mM CaCl2, 1.2 mM MgSO4, and 25 mM HEPES-NaOH pH 7.4. The dishes were rinsed 4 times with 3 ml ice-cold KRH and subsequently incubated with 1 ml of 4 mmol/l HClO4 to release the cell contents. 15 μl of lysate were analyzed by LC-MS (ESI, positive mode) using a Thermo Finnigan TSQ Quantum triple quad mass spectrometer equipped with a Waters Atlantis HILIC silica column (length 100 mm, diameter 3 mm, particle size 5 μm). The solvent for isocratic chromatography (flow rate 250 μl/min) was made of methanol (70%) and 0.1% formic acid (30%). Data sets were compared by LC-MS Difference Shading software (see separate patent application).
A series of compounds structurally related to either stachydrine or carnitine, the key substrate of the related OCTN2 transporter was tested, for transport by ETTh. […] LC-MS/MS determines total cellular content of a particular analyte.

The conditions of series [2]: Guinea Pig, blood; cited from earlier work.
The conditions of series [3]: cited from earlier work.
For series [4] the following is noted: Dog, blood; cited from earlier work.
The conditions of series [5]: Ox, blood; cited from earlier work.
For series [6] the following is noted: Sheep, blood; cited from earlier work.
For series [7] the following is noted: Fowl, blood; cited from earlier work.
The conditions of series [8]: Cat, blood; cited from earlier work.
For series [9] the following is noted: Pig, blood; cited from earlier work.
The conditions of series [10]: Man, blood; cited from earlier work.
For series [11] the following is noted: Rabbit, blood; cited from earlier work.
The conditions of series [12]: Rat, blood; cited from earlier work.
Series [13] deals with T2, carnitine transporter OCTN2 from rat (Rattus norvegicus, UniProt O70594).
T2 sequence (O70594 1-557): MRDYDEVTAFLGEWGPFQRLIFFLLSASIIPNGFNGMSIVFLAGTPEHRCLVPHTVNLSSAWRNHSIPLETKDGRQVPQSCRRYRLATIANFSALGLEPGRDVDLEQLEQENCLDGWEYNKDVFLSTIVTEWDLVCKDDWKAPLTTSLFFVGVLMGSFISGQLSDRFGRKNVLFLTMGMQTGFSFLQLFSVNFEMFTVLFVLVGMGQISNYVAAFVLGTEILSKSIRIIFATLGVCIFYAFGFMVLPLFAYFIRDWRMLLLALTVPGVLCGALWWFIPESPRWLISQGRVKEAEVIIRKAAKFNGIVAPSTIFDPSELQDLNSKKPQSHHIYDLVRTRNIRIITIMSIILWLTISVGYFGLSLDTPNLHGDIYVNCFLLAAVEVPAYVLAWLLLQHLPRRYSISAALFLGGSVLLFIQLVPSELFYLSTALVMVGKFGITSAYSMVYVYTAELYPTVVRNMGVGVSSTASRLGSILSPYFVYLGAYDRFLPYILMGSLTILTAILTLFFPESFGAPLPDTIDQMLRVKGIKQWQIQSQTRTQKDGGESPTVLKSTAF
Put plainly: ET transport by carnitine transporter OCTN2. It counts as cell-based.
Description: If the substrate concentration is much smaller than the affinity of the transporter (=Km), then the clearance is directly proportional to the transport efficiency, defined, by analogy to catalytic efficiency for enzymes, as kcat/Km, where kcat is the turnover number of an individual transporter molecule (note that Vmax=kcat*Etotal, where Etotal is the number of transporter molecules).

The next series concerns 293-FIT-NT cells. Description: ET uptake into control 293-FIT-NT cells (no ETT expression). It counts as cell-based, human. The procedure: as §1
A short description of series [14]: Accumulation of ergothioneine in the lens of the eye.
Where [15] appears, read: 293-FIT-ETTh cells, 1 min at 37° C., KRH buffer, LC-MS/MS.
Where [16] appears, read: LC-MS/MS assay, substrate 10 μmol/l, 1 min at 37° C.

Like-named read-outs stand apart in the source and are kept apart here.

Broadly, the Km is the concentration of substrate that gives half-maximal velocity. With `C[N+]1(C)CCC[C@H]1C(=O)[O-]` [stachydrine], in [1], the plasma levels entry was “about 10 μmol/l”. Besides, at ETTh (setting [15]), the Km stood at 300 µM. The “transport by ETTh (in words)” value on ETTh (setting [16]) was “accumulated”; at ETTh (LC-MS/MS assay, substrate 10 μmol/l, 1 min at 37° C., listed as proline betaine), “good substrates”.
Take `CC[N+](CC)(CC)CC` [TEA, tetraethyl ammonium]: the “transport by ETTh (in words)” value at ETTh (radiotracer assay, substrate 0.1 μmol/l) is on record as “negligible”.
For `C[N+]1(C)C[C@@H](O)C[C@@H]1C(=O)[O-]` [hydroxyproline betaine], the “transport by ETTh (in words)” value at ETTh (setting [16]) was “good substrates”.
On to `C[N+](C)(C)[C@@H](Cc1c[nH]c(=S)[nH]1)C(=O)[O-]` [ergothioneine, 2-mercaptohistidine trimethylbetaine], for which the Ergothioneine concentration in [2] is 1-4 mg/100 ml blood; in series [4], 3-6 mg/100 ml blood; in [5] it was 0.5-2 mg/100 ml blood; in series [6], 2-6 mg/100 ml blood; in series [7] it was 2-10 mg/100 ml blood; in series [8], 0.5-2 mg/100 ml blood. Moreover, the Ergothioneine concentration in series [9] was 3-27 mg/100 ml blood; in series [10] it was 1-4 mg/100 ml blood; in series [11] it was 1-10 mg/100 ml blood; in series [12] it was 1-6 mg/100 ml blood. Moreover, the “concentration in human and mammalian tissue (estimated)” value in [3] was 1000 to 2000 µM. The “true clearance (Vmax divided by Km)” value at ETTh (293-FIT-ETTh cells) is recorded as 190 μl/min/mg protein. Besides, the Vmax at ETTh (setting [15]) worked out at 4.2 nmol/min/mg protein. Besides, on ETTh (setting [15]), the Km amounted to 22 µM. Besides, the “transport by ETTh (in words)” value at ETTh (setting [16]) is on record as “extremely high transport activity”. Moreover, at ETTh (transport efficiency, ET versus stachydrine), the “ETTh transports ET better than stachydrine” value came to 10 fold. The “acceptance as substrate by OCTN2” value in series [13] is listed as “did not accept ET as a substrate at all”. In addition, the “slope d of uptake into control cells” value in the series with 293-FIT-NT cells (293-FIT-NT control cells, 1 min at 37° C., KRH buffer) turned out to be 0.32 μl/min/mg protein. Also, in the series with 293-FIT-NT cells (without expression of ETT), the “uptake into cells without expression of ETT (in words)” value was “virtually no uptake”. In addition, in series [14], the “accumulation in the lens of the eye (in words)” value was “significant accumulation”.
